This passage reports IC50, LC50 and inhibition results from patent US5859067A, “Use of natural products and related synthetic compounds for the treatment of cardiovascular disease” (priority 1993, dated 1999).

Experiment [1] addresses T1, human erythrocyte plasma membrane Ca^2+ -ATPase (Homo sapiens, UniProt P23634).
T1 construct: Calmodulin-depleted erythrocyte membranes were prepared by continuous filtration through a hollow fibre; tissue New South Wales Red Cross Transfusion Service, Sydney; host or cells: human packed red blood cells (calmodulin-depleted erythrocyte membranes)
Kind of experiment: Ca^2+ -ATPase assay (microplate method), absence (-CaM) and presence (+CaM) of calmodulin (Table 1A). The format is biochemical. As to the method: Natural and synthetic compounds of formula (I) were tested for their ability to influence human erythrocyte plasma membrane Ca^2+ -ATPase. The enzyme Ca^2+ -ATPase in the human red blood cell plasma membrane has previously been studied and its stimulation by calmodulin and activation by lipids and proteolysis and its primary structure have been published (see Carafoli E (1991) Calcium pump of the plasma membrane, Physiological Reviews 71, 129-153.
(§1) Calmodulin-depleted erythrocyte membranes were prepared by continuous filtration through a hollow fibre, Ashahi plasma separator as described by W S Price, B D Roufogalis, P W Kuchel (1989), A simple and inexpensive method for preparing erythrocyte membranes by filtration through a hollow-filter system, Anal. Biochem., 179, 190-193. Packed cells were obtained from the New South Wales Red Cross Transfusion Service, Sydney. The whole preparation was carried out at 4° C. 1 unit of packed red cells was washed 3 times with isotonic buffer, containing 130 mM KCl, 20 mM Tris-HCl (pH 7.4), and the cells were collected by centrifugation at 4,000 RPM. The cells were haemolysed by the buffer containing 1 mM EDTA, 10 mM Tris-Hcl (pH 7.4), 0.5 mM PMSF (phenylmethyl sulfonyl fluoride). The haemolyzate mixture was passed through the hollow fibre system until the membrane appeared white, and then washed with 10 mM potassium Hepes (pH 7.4). The membranes were collected by centrifugation at 10,000 RPM for 20 min, the membranes were resuspended in storage buffer containing 130 mM KCl, 2 mM dithiothreitol, 0.5 mM MgCl2, 20 mM potassium-Hepes (pH 7.5). The membranes with protein concentration of 1.5-5.4 mg/ml were stored at -80° C. until required.
Erythrocyte membranes were incubated at 37° C. for one hour in a total volume of 60 μl of 65 mM KCl, 50 mM HEPES (pH=7.4), 5 mM MgCl2, 50 μM CaCl2, 0.1 mM EGTA and in absence and presence of calmodulin (0.3 μM). Test compounds were dissolved in dimethyl sulfoxide DMSO and 2 μl was added to the assay mixture prior the addition of ATP. The final concentration of DMSO in the assay mixture was 3%. The reaction was started by adding 2 mM ATP (pH=7.4). After 1 hour of incubation, colouring agent (180 μl) was added and incubated at 37° C. for 1/2 hrs. The phosphate liberated to the assay medium was determined spectrometrically using a microplate reader at 750 nm. The activity of the Mg^2+ -ATPase (assayed in the absence of added CaCl2) was subtracted from the total activity assayed in the presence of Ca^2+.

Experiment [2] has as its system brine shrimp (Artemia salina Leach). The experiment is described as follows: Brine shrimp toxicity bioassay. The format is in vivo. To be noted: Artemia salina, read-out: LC50 brine shrimp. As to the method: There are many applications of the assay including analysis of toxic substances, anaesthetics, morphine-like substances and cocarcinogenicity of phorbol esters.
6 (K Hostettman, ed.), Academ Press, London, 1-32. DMSO solutions of the substances to be tested were added directly to the vials containing the brine shrimp. As the concentration of DMSO that we wished to use was higher than the recommended 1% v/v testing of the toxicity of the DMSO was therefore necessary.
Brine shrimp toxicity was assayed, except for some minor modifications, according to the method of McLaughlin et al as reported in Brine Shrimp: A convenient general bioassay for active plant constituents, B N Meyer, N R Ferrigni, J E Putman, L B Jacobsen, D E Nhols and J L McLaughlin. […] J L McLaughlin. […] 6 (K Hostettman, ed.), Academ Press, London, 1-32. Ten shrimp were added transferred to each of the vials and the volume adjusted to 4.9 mL. Each dose was performed in triplicate, including the control. In quick succession, the appropriate volume of additional DMSO for each dose, required to achieve a final concentration of 2%, was added before the appropriate volume of test solution. The vials were gently mixed and the time noted. After 24 hours, the number of survivors were counted and % mortality was determined.
The LC50 values were expressed in both μM and μg/mL.

In experiment [3] the target is T1, human erythrocyte plasma membrane Ca^2+ -ATPase. The experiment is described as follows: Ca^2+ -ATPase assay (erythrocyte membranes; Table 1). It counts as biochemical. The protocol: Natural and synthetic compounds of formula (I) were tested for their ability to influence human erythrocyte plasma membrane Ca^2+ -ATPase.
as §1, with “Packed” for “Calmodulin-depleted erythrocyte membranes were prepared by continuous filtration through a hollow fibre, Ashahi plasma separator as described by W S Price, B D Roufogalis, P W Kuchel (1989), A simple and inexpensive method for preparing erythrocyte membranes by filtration through a hollow-filter system, Anal. Biochem., 179, 190-193. Packed”
Erythrocyte membranes (0.071-0.098 mg/ml) were incubated at 37° C. for one hour in a total volume of 0.4 ml of 65 mM KCl, 20 mM potassium-Hepes, 5 mM MgCl2, 50 μM CaCl2, 0.1 μm calmodulin, 0.1 mM EGTA. The reaction was started by adding 2 mM ATP(pH 7.4). […] The activity of the Mg^2+ -ATPase (assayed in the absence of added CaCl2) was subtracted from the total activity assayed in the presence of Ca^2+. […] A concentrated solution of the test substances was added to the reaction medium before adding ATP.

[4] abbreviates: IC50 (+CaM), presence of calmodulin (0.3 μM).
The mark [5] stands for this setting: IC50 (-CaM), absence of calmodulin.
Setting [6] is: absence of calmodulin, read-out: IC50 (-CaM).
The mark [7] stands for this setting: presence of calmodulin (0.3 μM), read-out: IC50 (+CaM).
Setting [8] is: at 100 μM, read-out: INHIBITION OF Ca^2+ -ATPase PERCENT (%).
The mark [9] stands for this setting: read-out: INHIBITION OF Ca^2+ -ATPase IC50.
[10] abbreviates: read-out: INHIBITION OF Ca^2+ -ATPase PERCENT (%).

pIC50: −log10 of the molar value. Where “and” joins values, the source holds several entries; their conditions need not be identical. Equal values may be shown once. Read-outs that look alike come from different tables or passages of the source.

T1 sequence (P23634 1-1205 isoform P23634-6): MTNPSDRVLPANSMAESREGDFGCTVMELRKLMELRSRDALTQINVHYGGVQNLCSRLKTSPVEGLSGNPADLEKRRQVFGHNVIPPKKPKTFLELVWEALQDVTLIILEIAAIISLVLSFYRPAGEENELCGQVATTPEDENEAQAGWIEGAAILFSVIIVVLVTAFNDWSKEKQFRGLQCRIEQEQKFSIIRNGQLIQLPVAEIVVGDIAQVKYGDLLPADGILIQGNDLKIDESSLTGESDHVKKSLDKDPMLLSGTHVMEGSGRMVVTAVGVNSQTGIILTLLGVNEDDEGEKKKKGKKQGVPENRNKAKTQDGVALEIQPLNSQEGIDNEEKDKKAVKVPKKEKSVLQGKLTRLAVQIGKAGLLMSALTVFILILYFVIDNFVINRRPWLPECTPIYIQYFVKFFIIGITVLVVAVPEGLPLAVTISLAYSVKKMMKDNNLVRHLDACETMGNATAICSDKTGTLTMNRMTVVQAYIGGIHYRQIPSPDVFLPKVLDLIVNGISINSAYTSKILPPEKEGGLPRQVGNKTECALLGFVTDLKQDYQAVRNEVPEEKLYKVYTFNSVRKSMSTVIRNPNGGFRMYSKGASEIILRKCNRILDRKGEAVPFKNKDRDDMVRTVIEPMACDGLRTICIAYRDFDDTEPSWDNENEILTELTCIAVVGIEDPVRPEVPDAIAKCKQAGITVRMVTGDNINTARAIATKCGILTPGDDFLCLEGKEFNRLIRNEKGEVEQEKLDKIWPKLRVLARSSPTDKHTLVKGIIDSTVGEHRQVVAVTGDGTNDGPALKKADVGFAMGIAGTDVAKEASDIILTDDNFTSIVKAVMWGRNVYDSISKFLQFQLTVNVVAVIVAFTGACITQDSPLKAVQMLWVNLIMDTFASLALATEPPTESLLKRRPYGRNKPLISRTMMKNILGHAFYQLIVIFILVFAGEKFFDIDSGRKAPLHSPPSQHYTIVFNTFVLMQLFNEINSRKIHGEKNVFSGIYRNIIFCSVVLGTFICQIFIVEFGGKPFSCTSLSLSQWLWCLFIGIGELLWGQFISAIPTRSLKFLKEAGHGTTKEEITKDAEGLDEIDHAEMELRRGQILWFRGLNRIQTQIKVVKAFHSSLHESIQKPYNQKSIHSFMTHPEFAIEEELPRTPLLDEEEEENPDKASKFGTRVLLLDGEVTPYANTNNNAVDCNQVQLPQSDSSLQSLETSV
T1 sequence (P35613 140-385 partner limits assumed): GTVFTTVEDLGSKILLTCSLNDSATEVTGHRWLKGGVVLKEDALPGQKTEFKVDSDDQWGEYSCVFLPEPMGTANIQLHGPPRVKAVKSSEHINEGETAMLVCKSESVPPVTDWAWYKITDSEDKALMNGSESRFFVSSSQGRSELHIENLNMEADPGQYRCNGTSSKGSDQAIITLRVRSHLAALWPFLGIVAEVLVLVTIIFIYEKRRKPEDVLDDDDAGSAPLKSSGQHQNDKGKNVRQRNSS

Regarding `CCCCCCCCCc1cc(Br)ccc1O` [4-bromo-6-nonylphenol], the results for the pIC50 in experiment [1] (setting [4]) and in experiment [1] (setting [5]) were 4.26 and 4.28, respectively.
Turning to `Cc1ccc(CCCCCCCCCCc2ccc(C)c(O)c2)cc1O` [1,10-bis(3-hydroxy-4-methylphenyl)decane], the values for the pIC50 in experiment [1] (setting [6]) and in experiment [1] (setting [7]) were 4.29 and 4.32, respectively. In addition, in experiment [2] (24 hours), the LC50 was 11 µM and 3.9 µg/mL.
Regarding `Cc1ccc(O)c(CCCCCCCCCCc2cc(C)ccc2O)c1` [1,10-bis(2-hydroxy-5-methylphenyl)decane], the values for the pIC50 in experiment [1] (setting [6]) and in experiment [1] (setting [7]) were 4.66 and 4.69, respectively.
With `Cc1c(O)ccc(CCCCCCCCCCc2ccc(O)c(C)c2O)c1O` [1,10-bis(2,4-dihydroxy-3-methylphenyl)decane], the pIC50 in experiment [1] (setting [6]) and in experiment [1] (setting [7]) was 4.00 each time. Besides, the LC50 in experiment [2] (24 hours) is > 25 µM and > 9.7 µg/mL.
On to 2-bromo-6-nonylresorcinol, for which the pIC50 in experiment [1] (setting [6]) and in experiment [1] (setting [7]) was 3.40 each time.
In the case of `CCCCCCCCCc1cc(Br)cc([N+](=O)[O-])c1O` [4-bromo-2-nitro-6-nonylphenol], the pIC50 in experiment [1] (setting [4]) was 4.18.
As for `Oc1ccccc1CCCCCCCCc1ccccc1O` [1,8-bis(2-hydroxyphenyl)octane], the pIC50 in experiment [1] (setting [6]) and in experiment [1] (setting [7]) was 4.62 throughout. Moreover, the LC50 in experiment [2] (24 hours) was 3 µM and 0.89 µg/mL.
Consider `CCCCCCCCCc1cc([N+](=O)[O-])ccc1O` [4-nitro-6-nonylphenol], for which the figures for the pIC50 in experiment [1] (setting [4]) and in experiment [1] (setting [5]) were 4.15 and 4.10, respectively.
As for `Oc1ccc(CCCCCCCCCCCCc2ccc(O)cc2O)c(O)c1` [1,12-bis(2,4-dihydroxyphenyl)dodecane], the pIC50 in experiment [1] (setting [6]) was 4.92; in experiment [1] (setting [7]) it was 4.70. Further, the LC50 in experiment [2] (24 hours) is 14 µM and 5.4 µg/mL.
Turning to `CCCCCCCCCc1cc(C)ccc1O` [4-methyl-6-nonylphenol], the pIC50 was 4.12 in experiment [1] (setting [4]) and 4.10 in experiment [1] (setting [5]).
On to 4-bromo-6-nonylresorcinol, for which the pIC50 in experiment [1] (setting [6]) and in experiment [1] (setting [7]) was 3.40 in each case.
As for `C=C(C)C(CC=C(C)C)Cc1c(O)cc(O)c2c1OC(c1ccccc1O)CC2=O` (centres unmarked) [5,7,6'-trihydroxy-8-lavandulylflavanone], the pIC50 in experiment [1] (setting [6]) is 4.58.
For the compound `C=C(C)C(CC=C(C)C)Cc1c(OC)cc(O)c2c1OC(c1c(O)cccc1O)CC2=O` (centres unmarked) [5,2',6'-trihydroxy-8-lavandulyl-7-methoxyflavanone], the pIC50 in experiment [1] (setting [6]) was 4.34.
`Oc1ccc(CCCCCCCCCCCCCCc2ccccc2O)cc1` [1-(2-hydroxyphenyl)-14-(4-hydroxyphenyl)tetradecane]: in experiment [3] (setting [8]), the inhibition at 100 µM was 60%. In addition, the pIC50 in experiment [3] (setting [9]) was 4.09. Besides, the LC50 in experiment [2] (24 hours) is 3.7 µM and 1.4 µg/mL.
For the compound `Oc1ccccc1C1CCCCC1` [2-cyclohexylphenol], the pIC50 in experiment [3] was 3.73. Moreover, the inhibition at 100 µM in experiment [3] (setting [10]) is 28%. In experiment [2] (24 hours), the LC50 was > 25 µM and > 4.4 µg/mL.
Consider `CCCCCCCCCc1cc([N+](=O)[O-])cc(Br)c1O` [2-bromo-4-nitro-6-nonylphenol], for which, in experiment [1] (setting [4]), the pIC50 is 4.15.
Regarding `CCCCCCCCCCc1cc(O)cc(O)c1C(=O)OCC` [ethyl 2,4-dihydroxy-6-decylbenzoate], in experiment [3] (setting [8]), the inhibition at 100 µM stood at 60%. Moreover, the pIC50 in experiment [3] (setting [9]) is 4.07. In experiment [2] (24 hours), the LC50 was 2.3 µM and 0.75 µg/mL.
Consider `CCCCCCCCCc1ccc(C)cc1O` [3-methyl-6-nonylphenol], for which the pIC50 was 4.22 in experiment [1] (setting [4]) and 4.28 in experiment [1] (setting [5]).
Consider `Oc1ccc(CCCCCCCCCCc2ccc(O)cc2)cc1` [1,10-bis(4-hydroxyphenyl)decane], for which the inhibition at 100 µM in experiment [3] (setting [8]) worked out at 52%. For the same compound, the pIC50 in experiment [3] (setting [9]) was 4.03. For the same compound, in experiment [2] (24 hours), the LC50 was 810 nM and 0.26 µg/mL.
Consider `CCCCCCCCCc1cccc(O)c1` [3-nonylphenol], for which the pIC50 in experiment [3] is 4.19. Besides, the inhibition at 100 µM in experiment [3] (setting [10]) amounted to 69%. The LC50 in experiment [2] (24 h) was 320 nM and 0.07 µg/mL.
On to `Oc1ccccc1CCCCCCCCCc1ccccc1O` [1,9-bis(2-hydroxyphenyl)nonane], for which the pIC50 in experiment [1] (setting [6]) was 4.87; in experiment [1] (setting [7]), 4.85.
In experiment [3], `CCCCCCCCc1ccccc1O` [2-octylphenol] had a pIC50 of 4.49. Besides, in experiment [3] (setting [10]), the inhibition at 100 µM was 100%. In addition, the LC50 in experiment [2] (24 h) is 1.5 µM and 0.31 µg/mL.
Take `Oc1ccc(CCCCCCCCCCc2ccccc2O)cc1` [1-(2-hydroxyphenyl)-10-(4-hydroxyphenyl)decane]: the inhibition at 50 µM in experiment [3] (at 50 μM, read-out: INHIBITION OF Ca^2+ -ATPase PERCENT (%)) was found to be 100%. In addition, in experiment [3] (setting [9]), the pIC50 was 4.92. Besides, the LC50 in experiment [2] (24 hours) is 350 nM and 0.11 µg/mL.
Take `CCCCCCCCCc1c(Br)c(O)c(Br)c(O)c1C(=O)OCC` [ethyl 3,5-dibromo-2,4-dihydroxy-6-nonylbenzoate]: in experiment [3] (setting [8]), the inhibition at 100 µM was 95%. In experiment [3] (setting [9]), the pIC50 is 4.36. Moreover, the LC50 in experiment [2] (24 hours) is 780 nM and 0.36 µg/mL.
Take `CCCCCCc1ccc(O)cc1O` [4-hexylresorcinol, reference compound]: the inhibition at 100 µM in experiment [3] (setting [8]) was 17%. Moreover, the pIC50 in experiment [3] (setting [9]) was 3.59. The LC50 in experiment [2] (24 hours) was 62 µM and 12 µg/mL.
Regarding `CCCCCCCCC(=O)c1ccccc1O` [2-nonanoylphenol], the inhibition at 100 µM in experiment [3] (setting [8]) came out at 32%. In experiment [3] (setting [9]), the pIC50 is less than 4.00. Moreover, in experiment [2] (24 hours), the LC50 is 630 nM and 0.15 µg/mL.
Regarding `CCCCCCCCCCc1cc(O)cc(O)c1` [5-decylresorcinol], the inhibition at 100 µM in experiment [3] (setting [8]) was 30%. The pIC50 in experiment [3] (setting [9]) is 3.87. In experiment [2] (24 hours), the LC50 is 54 µM and 15 µg/mL.
For `Oc1ccc(CCCCCCCCCCCCc2ccccc2O)cc1` [1-(2-hydroxyphenyl)-12-(4-hydroxyphenyl)dodecane], the inhibition at 100 µM in experiment [3] (setting [8]) came out at 99%. Besides, the pIC50 in experiment [3] (setting [9]) is 4.73. The LC50 in experiment [2] (24 hours) is 54 nM and 0.019 µg/mL.
Turning to `CCCCCCCCCCc1ccc(O)cc1` [4-decylphenol], the pIC50 in experiment [3] is 3.77. Moreover, the inhibition at 100 µM in experiment [3] (setting [10]) is 24%. Further, the LC50 in experiment [2] (24 h) was 270 nM and 0.064 µg/mL.
